Results on two compounds are retold here after US20070099938A1, “Antistress drug and medical use thereof” (ONO PHARMACEUTICAL CO., LTD., priority 2003, published 2007).

This assay addresses T1, MBR (Rattus norvegicus, UniProt P16257).
T1 construct: from tissue; host or cells: whole brain without cerebellum of male Wistar rats, crude membrane pellet
The assay is described as follows: Receptor binding experiment ([3H]PK11195 competition, rat brain membrane preparation). Particulars: [3H]PK11195 0.5 or 1 nmol/L, Cheng and Prusoff from KD and IC50. The protocol:
The affinity of the compounds in the present invention to MBR was determined using rat brain membrane preparation. In addition, the measurement in the present invention was improved the accuracy of measurement and the sensitivity of measurement for evaluating the compounds in the present invention as follows. After male Wister rats were decapitated to extirpate the whole brain and cerebellums were removed. They were homogenized in ice-cold 50 mmol/L Tris-HCL buffer solution (pH 7.4), centrifuged and the obtained pellets were washed. The pellets resuspended and adjusted to about 1 mg/mL were used as rat brain membrane preparations for binding assay. The binding assay were experimented using [^3H]PK11195 as a MBR selective ligand. […]
To determine the amount of total binding in saturation binding experiment, membrane preparations, various concentrations of [^3H]PK11195, final concentration: 0.5 vol % dimethylsulfoxide (DMSO) and 50 mmol/L Tris-HCL buffer solution (pH 7.4) were mixed (total volume 200 μL) and were incubated for 1 hour at room temperature. […] The filter was dried and then the radioactivity on the filter was measured by liquid scintillation counter. The data obtained by the binding experiments were Scatchard analyzed using analysis software, KELL (Ver.6, BIOSOFT) and the dissociation constant (KD value) was determined. […]

In turn, `O=S(=O)(Nc1nccc(-c2cc(OC(F)F)ccc2OC(F)F)n1)c1ccccc1` [Example 5(2), N-{4-[2,5-bis(difluoromethoxy)phenyl]pyrimidin-2-yl}benzenesulfonamide] gave a Ki of 10 nM.

Consider `CC(=O)Nc1cccc(-c2ccnc(NC(=O)c3ccccc3)n2)c1` [Example 3(46), N-{4-[3-(acetylamino)phenyl]pyrimidin-2-yl}benzamide], for which the inhibition constant Ki amounted to 360 nM.

As a reminder, the Ki is the equilibrium dissociation constant of an inhibitor or competing ligand from its target.
